Measured values taken from patent US11022604B2, “Dock derived compound against laminin receptor (37 LR) and uses thereof” (Purdue Research Foundation, priority 2017, dated 2021).

Target: T1, Peptide G (37 LR binding site for laminin, aa 161-180) (Homo sapiens, UniProt P08865)
T1 construct: purchased United Biosystems; host or cells: chemical synthesis
Test: Intrinsic tryptophan fluorescence binding assay, Peptide G
Conditions: 50 μM Peptide G, titration 0.1 to 100 μM; read-out: EC50, reduction of intrinsic tryptophan fluorescence
Experimental: FIG. 4. Reduction of Tryptophan Fluorescence by C3. 50 μM peptide G or Scramble G was incubated with concentrations of C3 ranging from 100 nM to 100 μM. Intrinsic tryptophan fluorescence was quantified at 350 nm emission (270 nm excitation) and graphed as a function of C3 dose after subtracting baseline C3 fluorescence. GraphPad Prism was used to determine an ECso for tryptophan reduction as described in the method (n=3±SEM).
Cell Viability Screen. PC-3, Endo, TC2-Ras, SH-SY5Y, and LNCaP cells were seeded in 96-well plates at 1,500 cells per well using the Scepter cell counter (EMD Millipore). […] Cell viability was measured by using the cell counting kit-8 (CCK-8, Dojindo). […] CCK-8 absorbance was measured at 450 nm using a GloMax Multimode Reader (Promega). Readings were performed the day after seeding to normalize for variations in cell seeding and after 96 hours of compound treatment. After each reading, CCK-8 media was removed and replaced with media containing compound as described previously. […] As described previously, an initial baseline CCK-8 reading was performed at 24 hours post seeding to correct for variations in seeding density. First, 450 nm values for each well were subtracted from media only readings to correct for baseline absorbance. Then, the 96 hour readings were normalized to their respective 24 hour readings to control for seeding variation. […]

T1 sequence (P08865 161-180 limits assumed): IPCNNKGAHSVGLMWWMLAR

EC50: 16.1 µM
Structure (SMILES): O=C(c1cc(F)cc2c1OCOC2)N1CCN(C2c3ccccc3-c3ccccc32)CC1 [Compound C3, [4-(9h-fluoren-9-yl)piperazino](6-fluoro-4h-1,3-benzodioxin-8-yl)methanone]
